Measured values as given in PubChem BioAssay (NCI).
Where “and” joins values, the source holds several entries; their conditions need not be identical. Identical values can stand only once.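 Tested at 5 concentrations; 48 h exposure; 96-well plates; endpoints linearly interpolated, else capped at highest concentration. Here, GI50 denotes the concentration required for 50% inhibition of growth. TGI is the concentration that stops growth completely.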

Legend:
Assay in all cases: NCI tumour cell line growth inhibition, 48 h
[1] = tested on: DMS 114 small cell lung
[2] = tested on: M19-MEL melanoma
[3] = tested on: T-47D breast
[4] = tested on: XF 498 CNS
[5] = tested on: KM20L2 colon
[6] = tested on: RXF-631 renal
[7] = tested on: P388/ADR leukemia
[8] = tested on: SN12K1 renal
[9] = tested on: SNB-78 CNS
[10] = tested on: MDA-N

SMILES: COc1nc(C(Cl)(Cl)Cl)c(Cl)c(OC)c1Cl
- GI50 [1]: 19.7 µM
- TGI [1]: 45.9 µM and 61.6 µM
- GI50 [2]: 25.3 µM
- TGI [2]: 58.5 µM and 67 µM
- TGI [3]: 77.6 µM
- TGI [4]: 54.5 µM
- GI50 [5]: 21 µM
- TGI [5]: 55.7 µM and 85.2 µM
- TGI [6]: 49.4 µM
- TGI [7]: 85.9 µM
- TGI [8]: 62.4 µM
- TGI [9]: 72.3 µM
- TGI [10]: 57.5 µM
